Source: ChEMBL document CHEMBL1201862, “PubChem BioAssay data set” (2004)
Where a name gives a salt, the structure may show the parent alone. Active and inactive are the calls of the source.

How the values were obtained:
[1] = target: Potassium voltage-gated channel subfamily KQT member 2 (Rattus norvegicus, UniProt O88943, W236L); assay: KCNQ2 channel potentiators, dose response, mechanism study for KCNQ2 potentiator project, cell-based, automated electrophysiology (AID 2603); format: functional
[2] = Luminescence Cell-Based Dose Response HTS to Identify Activators of Luciferase Translation or Activity in H4 […] Cells. [Related pubchem assays: 1829 (Project Summary), 1814 (Primary HTS)]; format: functional
H4 = assay: Luminescence Cell-Based Dose Response HTS to Identify Activators of 5'UTR Stem-Loop Driven Prion Protein mRNA Translation in H4 Neuroglioblastoma Cells. [Related pubchem assays: 1829 (Project Summary), 1814 (Primary HTS)]; format: functional; conditions: Homo sapiens
[3] = Luminescence Cell-Based Dose Confirmation to Identify Activators of 5'UTR Stem-Loop Driven Alpha-Synuclein mRNA Translation in H4 Neuroglioblastoma Cells. [Related pubchem assays: 1829 (Project Summary), 1814 (Primary HTS)]; format: functional
[4] = Luminescence Cell-Based Dose Response to Identify Activators of 5'UTR Stem-Loop Driven Prion Protein mRNA Translation in H4-C Neuroglioblastoma Cells. [Related pubchem assays: 1829 (Project Summary), 1814 (Primary HTS)]; format: functional
[5] = Luminescence Cell-Based Dose Response to Identify Activators of Luciferase Translation or Activity in H4-C Neuroglioblastoma Cells. [Related pubchem assays: 1829 (Project Summary), 1814 (Primary HTS)]; format: functional
[6] = target: Muscarinic acetylcholine receptor M1 (Rattus norvegicus, UniProt P08482); assay: rat M1 positive allosteric modulator potency, dose response, cell-based, calcium mobilization, CHO-K1, ACh EC20 (AID 2425); format: functional
[7] = target: Bifunctional protein GlmU (Mycobacterium tuberculosis, UniProt P9WMN3); assay: Inhibitors of Mycobacterial Glucosamine-1-phosphate acetyl transferase (GlmU). Secondary screen.; set-up: species or system Mycobacterium tuberculosis H37Rv
[8] = target: E3 ubiquitin-protein ligase Mdm2 (Homo sapiens, UniProt Q00987); assay: enhancers of MDM2-luciferase reporter signal, concentration-effect titration, project on inhibitors of MDM2 ubiquitin ligase, cellular assay, luminescent readout, 384-well plate format (AID 1394); format: functional;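 also: MDM2 E3 inhibitors raise luminescence so EC50 is for signal enhancement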
[9] = target: 5-hydroxytryptamine receptor 1A (Homo sapiens, UniProt P08908); format: functional
Vero = assay: West Nile virus antiviral activity, cell-based, CPE readout (AID 1621); format: functional; conditions: Chlorocebus sabaeus
[10] = Plasmodium falciparum Dd2 Sybr green parasite growth Measured in Cell-Based and Microorganism Combination System Using Plate Reader - 2153-01_Inhibitor_Dose_DryPowder_Activity_Set10.; format: functional
Paired box protein Pax-8 = Paired box protein Pax-8 (Homo sapiens, UniProt Q06710); assay: inhibitors of PAX8-driven TPO luciferase reporter, dose response, RMG-I cells, cherry-pick (AID 687027); format: functional, cell-based;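 also: luciferase reporter driven by Pax8 target thyroperoxidase promoter measured by SteadyGlo luminescence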
P388/ADR = assay: cells; format: functional; conditions: Mus musculus
[11] = cytotoxicity in HEK-293T cells, dose response, cytotoxicity control for TCR NF-kB inhibitor project, luminescence, T-cell screen hits (AID 489026); format: functional, cell-based;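 also: cells exposed to compound about 14 hours before the viability readout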
[12] = HeLa 2N DNA content increase, dose response, cell-based, IC50 (AID 1117349); format: functional
[13] = target: Dual specificity tyrosine-phosphorylation-regulated kinase 1A (Rattus norvegicus, UniProt Q63470); format: biochemical, Homo sapiens
[14] = CellTiter-Glo luminescent dose response of DLD-1 viability loss (AID 1117352); format: functional
[15] = Concentration-dependent survival of SW480 colon cancer line, luminescence detection with CellTiter-Glo, half-maximal inhibitory concentration (AID 1117338); format: functional
[16] = THP-1 cell cytotoxicity, dose response, cytotoxicity control for Vif-APOBEC3G degradation inhibitor project, THP-1 cells (AID 1117359); format: functional; conditions: Human immunodeficiency virus 1, THP-1
[17] = HCT116 cell viability decrease, GSK3B pretreatment – CellTiter-Glo, IC50, dose response (AID 1117339); format: functional; conditions: HCT-116
[18] = target: T1, DNA repair protein RAD52 homolog (Homo sapiens, UniProt P43351); format: functional, biochemical
T1 sequence (P43351 whole entry): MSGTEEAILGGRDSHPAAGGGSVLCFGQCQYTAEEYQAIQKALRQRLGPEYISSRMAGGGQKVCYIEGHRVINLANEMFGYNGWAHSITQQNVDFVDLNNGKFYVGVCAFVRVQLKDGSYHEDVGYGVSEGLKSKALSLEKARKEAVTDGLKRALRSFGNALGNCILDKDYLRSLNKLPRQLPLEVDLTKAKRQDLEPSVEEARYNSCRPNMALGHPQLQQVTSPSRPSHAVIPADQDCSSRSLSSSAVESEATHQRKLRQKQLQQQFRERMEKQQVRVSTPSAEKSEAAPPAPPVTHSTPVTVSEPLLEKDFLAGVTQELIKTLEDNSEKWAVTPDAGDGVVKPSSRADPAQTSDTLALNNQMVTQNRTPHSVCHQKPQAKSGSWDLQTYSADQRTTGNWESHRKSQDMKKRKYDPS

[19] = HeLa 4N DNA content increase, dose response, cell-based, IC50 (AID 1117351); format: functional
[20] = HepG2 cell cytotoxicity, dose response, cytotoxicity control for Shn3 inhibitor project, CellTiter-Glo, cherry-picked (AID 624134); format: functional, cell-based
[21] = control 3'UTR Renilla luciferase suppression, dose response, counter-screen for Shn3 inhibitor project, cell-based, Clone20-Shn3RL, cherry-picked (AID 624133); format: functional
[22] = human group III sPLA2 inhibitors, dose response, biochemical, QFRET, IC50 (AID 743457);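 also: green fluorescence rise as the enzyme cleaves BODIPY PC-A2 in liposomes; potency for inhibition of the enzyme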
P388 = assay: cells; format: functional; conditions: Mus musculus
[23] = Shn3 3'UTR reporter inhibitors, dose response, cell-based, Clone20 osteoblasts, firefly luciferase, cherry-picked (AID 624132); format: functional;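 also: firefly luciferase luminescence from reporter carrying the Shn3 3'UTR in osteoblasts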
[24] = RKO cell viability reduction, dose response, CellTiter-Glo luminescence (AID 1117322); format: functional
Nonstructural protein 1 = Nonstructural protein 1 (Influenza A virus, UniProt Q194T2); format: functional, Influenza A virus (A/California/07/2009(H1N1))
[25] = target: T2, Rac GTPase-activating protein 1 (Homo sapiens, UniProt Q9H0H5); assay: MgcRacGAP GTPase-activating activity inhibitors, confirmation, biochemical, ADP Hunter fluorescence, primary and confirmatory (AID 624330); format: functional
T2 sequence (Q9H0H5 whole entry): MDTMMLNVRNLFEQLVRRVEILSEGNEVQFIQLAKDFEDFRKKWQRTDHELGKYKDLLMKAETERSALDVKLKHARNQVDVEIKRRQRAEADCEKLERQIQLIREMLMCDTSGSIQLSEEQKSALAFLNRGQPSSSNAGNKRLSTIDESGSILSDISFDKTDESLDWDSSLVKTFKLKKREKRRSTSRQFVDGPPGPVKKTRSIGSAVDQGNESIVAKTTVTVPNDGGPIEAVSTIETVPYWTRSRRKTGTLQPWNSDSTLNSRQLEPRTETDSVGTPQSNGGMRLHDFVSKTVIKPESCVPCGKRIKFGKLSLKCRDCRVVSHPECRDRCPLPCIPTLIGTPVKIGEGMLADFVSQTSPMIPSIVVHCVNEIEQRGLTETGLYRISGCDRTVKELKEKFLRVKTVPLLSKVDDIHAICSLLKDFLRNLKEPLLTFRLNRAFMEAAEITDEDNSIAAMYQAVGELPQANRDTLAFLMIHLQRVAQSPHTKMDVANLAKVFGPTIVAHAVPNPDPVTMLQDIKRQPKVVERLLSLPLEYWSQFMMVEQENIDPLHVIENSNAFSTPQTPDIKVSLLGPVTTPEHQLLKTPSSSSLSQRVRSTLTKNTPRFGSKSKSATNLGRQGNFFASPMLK

[26] = SNU-C1 cell viability reduction, dose response, CellTiter-Glo luminescence (AID 1117323); format: functional, cell-based
SN12K1 = assay: cells; format: functional; conditions: Homo sapiens
[27] = cytotoxicity toward HCT116 cells – cell-based, CellTiter-Glo luminescence, IC50, dose response (AID 1117332); format: functional; conditions: HCT-116
[28] = target: Glutathione-S-transferase (Schistosoma japonicum, UniProt Q26513); assay: biotin-GST/anti-GST TR-FRET signal inhibitors, dose response, artefact control for Vif-APOBEC3G degradation inhibitor project, biochemical (AID 1117362); format: functional
[29] = target: Solute carrier family 12 member 2/member 5 (Homo sapiens, UniProt P55011+Q9H2X9); assay: KCC2 and NKCC1 inhibition by rubidium flux, cell-based, NKCC1 counter-screen (AID 1734); format: functional, HEK293
[30] = Dose-response inhibition of insulin secretion in a rat insulinoma line at 5 mM glucose (AID 1117331); format: functional, cell-based; conditions: INS-1E
cells = format: functional, cell-based; conditions: INS-1E
Galanin receptor type 2 = Galanin receptor type 2 (Homo sapiens, UniProt O43603); assay: Dose Response cell-based high-throughput screening assay to identify antagonists of galanin receptor 2 (GALR2). [Related pubchem assays: 828, 866 ]; format: functional
[31] = target: Induced myeloid leukemia cell differentiation protein Mcl-1 (Homo sapiens, UniProt Q07820); format: functional
[32] = cytotoxicity toward NIH3T3 fibroblasts, dose response, counter-screen, cell-based, ATP luminescence, mouse fibroblasts (AID 2010); format: functional;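 also: cells exposed to compound for about 90 hours before reading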
[33] = Luminescent dose response cell-based high throughput screening assay for inhibitors of the Janus kinase 2 mutant JAK2V617F. [Related pubchem assays: 1446 (Primary screen.), 1521 (Confirmation assay.), 1486 (Counter screen.)]; format: functional
HEK293 = assay: inhibitors of LMP1-driven NF-kB reporter, dose response, cell-based, HEK293, luciferase, cherry-pick (AID 588343); format: functional; conditions: Homo sapiens
[34] = target: ATP-binding cassette sub-family B member 6 (Homo sapiens, UniProt Q9NP58); assay: ABCB6 transporter inhibitors, dose response, K562-ABCB6 cells, flow cytometry, cherry pick 1 (AID 623955); format: functional; conditions: read-out: EC50_MICROM
[35] = inhibitors of intracellular T. cruzi replication, confirmation, NIH3T3 host cells, beta-gal luminescence (AID 2044); format: functional, cell-based;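 also: intracellular parasites grown in NIH/3T3 mouse fibroblasts as host cells; luminescent beta-galactosidase reporter signal from transgenic T. cruzi replicating inside host cells; inhibitors lower the luminescence signal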

Sequence of Potassium voltage-gated channel subfamily KQT member 2 (O88943 whole entry W236L): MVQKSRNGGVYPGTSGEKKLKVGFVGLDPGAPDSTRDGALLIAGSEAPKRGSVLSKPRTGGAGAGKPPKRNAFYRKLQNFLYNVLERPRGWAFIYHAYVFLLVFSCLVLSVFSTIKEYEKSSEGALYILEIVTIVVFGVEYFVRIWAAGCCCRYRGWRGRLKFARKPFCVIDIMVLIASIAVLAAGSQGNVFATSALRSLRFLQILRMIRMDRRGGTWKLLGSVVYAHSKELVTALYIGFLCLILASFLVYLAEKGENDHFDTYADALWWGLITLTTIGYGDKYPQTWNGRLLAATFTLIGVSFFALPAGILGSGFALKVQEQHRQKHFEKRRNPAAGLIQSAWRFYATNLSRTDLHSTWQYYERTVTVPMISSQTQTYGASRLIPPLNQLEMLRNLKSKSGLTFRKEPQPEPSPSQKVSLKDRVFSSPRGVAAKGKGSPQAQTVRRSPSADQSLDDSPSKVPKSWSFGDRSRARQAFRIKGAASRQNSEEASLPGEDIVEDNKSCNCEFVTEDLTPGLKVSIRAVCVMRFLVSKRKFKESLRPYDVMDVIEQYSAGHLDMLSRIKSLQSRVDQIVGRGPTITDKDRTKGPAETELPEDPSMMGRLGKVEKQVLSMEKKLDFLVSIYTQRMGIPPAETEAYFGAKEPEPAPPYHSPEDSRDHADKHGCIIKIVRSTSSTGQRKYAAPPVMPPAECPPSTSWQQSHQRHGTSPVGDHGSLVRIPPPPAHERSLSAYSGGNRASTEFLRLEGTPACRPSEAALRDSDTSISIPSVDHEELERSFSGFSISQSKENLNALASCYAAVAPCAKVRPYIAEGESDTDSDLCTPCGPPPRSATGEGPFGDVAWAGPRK
Sequence of Glutathione-S-transferase (Q26513 whole entry): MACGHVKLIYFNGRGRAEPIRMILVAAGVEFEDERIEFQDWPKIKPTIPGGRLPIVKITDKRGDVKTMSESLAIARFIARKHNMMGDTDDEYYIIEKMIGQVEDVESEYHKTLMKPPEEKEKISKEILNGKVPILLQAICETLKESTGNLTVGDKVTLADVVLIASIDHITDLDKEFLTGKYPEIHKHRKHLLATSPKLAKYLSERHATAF
Sequence of Paired box protein Pax-8 (Q06710 whole entry): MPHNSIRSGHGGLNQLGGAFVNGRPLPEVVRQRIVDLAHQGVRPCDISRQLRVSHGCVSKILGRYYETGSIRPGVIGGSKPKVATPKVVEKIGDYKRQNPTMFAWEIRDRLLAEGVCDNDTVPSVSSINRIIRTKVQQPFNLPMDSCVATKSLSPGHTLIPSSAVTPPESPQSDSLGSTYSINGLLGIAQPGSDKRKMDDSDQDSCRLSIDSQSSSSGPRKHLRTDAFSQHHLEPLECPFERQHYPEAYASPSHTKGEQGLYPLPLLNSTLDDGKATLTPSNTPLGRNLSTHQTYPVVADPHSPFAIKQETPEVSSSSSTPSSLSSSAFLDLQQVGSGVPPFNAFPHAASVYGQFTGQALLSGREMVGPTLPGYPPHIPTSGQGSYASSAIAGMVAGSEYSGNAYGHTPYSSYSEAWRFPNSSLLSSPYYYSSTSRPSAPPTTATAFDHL
Sequence of Induced myeloid leukemia cell differentiation protein Mcl-1 (Q07820 whole entry): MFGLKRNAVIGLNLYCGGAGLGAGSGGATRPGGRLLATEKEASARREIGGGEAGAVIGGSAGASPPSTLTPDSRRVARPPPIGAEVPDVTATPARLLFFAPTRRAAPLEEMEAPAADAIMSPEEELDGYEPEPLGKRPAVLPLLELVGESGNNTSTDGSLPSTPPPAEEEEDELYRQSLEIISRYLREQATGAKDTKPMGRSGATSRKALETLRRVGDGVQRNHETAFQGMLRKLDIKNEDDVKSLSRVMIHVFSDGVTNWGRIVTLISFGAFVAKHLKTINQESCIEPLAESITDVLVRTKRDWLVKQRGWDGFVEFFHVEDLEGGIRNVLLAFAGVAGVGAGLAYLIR
Sequence of Galanin receptor type 2 (O43603 whole entry): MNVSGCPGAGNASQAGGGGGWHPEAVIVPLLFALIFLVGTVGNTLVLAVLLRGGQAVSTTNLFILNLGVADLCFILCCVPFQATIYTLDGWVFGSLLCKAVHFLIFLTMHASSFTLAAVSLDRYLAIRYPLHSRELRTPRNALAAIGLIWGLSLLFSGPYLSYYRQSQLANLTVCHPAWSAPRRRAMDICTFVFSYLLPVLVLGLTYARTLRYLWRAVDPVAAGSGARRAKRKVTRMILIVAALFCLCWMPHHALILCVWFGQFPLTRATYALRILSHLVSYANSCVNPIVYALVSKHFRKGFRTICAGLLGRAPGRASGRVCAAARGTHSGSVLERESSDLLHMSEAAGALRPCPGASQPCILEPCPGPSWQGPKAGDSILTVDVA
Sequence of Bifunctional protein GlmU (P9WMN3 whole entry): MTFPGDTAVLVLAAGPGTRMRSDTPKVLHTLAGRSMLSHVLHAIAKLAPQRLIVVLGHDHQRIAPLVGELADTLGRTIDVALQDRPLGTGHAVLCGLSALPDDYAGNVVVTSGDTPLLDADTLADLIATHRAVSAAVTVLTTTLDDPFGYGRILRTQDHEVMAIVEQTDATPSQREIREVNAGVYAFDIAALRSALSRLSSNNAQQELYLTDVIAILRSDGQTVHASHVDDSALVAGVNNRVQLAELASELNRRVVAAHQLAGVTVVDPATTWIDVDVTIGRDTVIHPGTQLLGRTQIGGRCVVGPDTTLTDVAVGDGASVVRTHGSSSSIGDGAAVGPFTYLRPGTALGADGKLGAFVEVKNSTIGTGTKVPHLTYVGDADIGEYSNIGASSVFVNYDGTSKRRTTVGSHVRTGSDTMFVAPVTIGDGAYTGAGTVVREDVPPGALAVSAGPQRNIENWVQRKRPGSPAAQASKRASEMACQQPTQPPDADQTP
Sequence of Nonstructural protein 1 (Q194T2 whole entry): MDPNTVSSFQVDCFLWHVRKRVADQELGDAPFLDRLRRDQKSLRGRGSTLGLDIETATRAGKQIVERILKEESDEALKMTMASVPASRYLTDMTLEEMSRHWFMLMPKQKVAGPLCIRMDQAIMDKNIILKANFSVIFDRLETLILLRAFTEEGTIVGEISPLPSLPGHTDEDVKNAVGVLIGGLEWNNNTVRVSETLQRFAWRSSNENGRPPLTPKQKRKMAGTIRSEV
Sequence of Muscarinic acetylcholine receptor M1 (P08482 whole entry): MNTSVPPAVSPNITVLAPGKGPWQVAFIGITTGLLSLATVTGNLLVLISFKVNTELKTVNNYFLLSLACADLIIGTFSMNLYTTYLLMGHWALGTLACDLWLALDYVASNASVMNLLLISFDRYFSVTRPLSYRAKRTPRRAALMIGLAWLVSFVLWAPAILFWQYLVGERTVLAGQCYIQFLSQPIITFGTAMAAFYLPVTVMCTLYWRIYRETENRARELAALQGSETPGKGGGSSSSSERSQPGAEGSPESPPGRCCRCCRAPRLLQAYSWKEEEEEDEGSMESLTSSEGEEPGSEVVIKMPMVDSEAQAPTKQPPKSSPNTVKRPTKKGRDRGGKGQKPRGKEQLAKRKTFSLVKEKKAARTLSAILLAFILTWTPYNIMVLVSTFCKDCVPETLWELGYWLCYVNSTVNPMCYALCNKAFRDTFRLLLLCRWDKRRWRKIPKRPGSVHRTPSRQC
Sequence of 5-hydroxytryptamine receptor 1A (P08908 whole entry): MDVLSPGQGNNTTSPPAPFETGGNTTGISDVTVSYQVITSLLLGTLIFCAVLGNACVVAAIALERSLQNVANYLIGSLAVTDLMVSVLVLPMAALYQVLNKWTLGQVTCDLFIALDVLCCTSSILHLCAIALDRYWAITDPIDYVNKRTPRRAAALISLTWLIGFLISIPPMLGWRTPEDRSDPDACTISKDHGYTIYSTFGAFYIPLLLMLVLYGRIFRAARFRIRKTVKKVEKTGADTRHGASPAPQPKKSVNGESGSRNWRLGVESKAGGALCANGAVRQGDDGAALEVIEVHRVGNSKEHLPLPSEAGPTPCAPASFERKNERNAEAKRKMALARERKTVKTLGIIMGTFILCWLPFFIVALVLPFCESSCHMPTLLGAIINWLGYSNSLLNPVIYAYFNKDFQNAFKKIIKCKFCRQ
Sequence of E3 ubiquitin-protein ligase Mdm2 (Q00987 whole entry): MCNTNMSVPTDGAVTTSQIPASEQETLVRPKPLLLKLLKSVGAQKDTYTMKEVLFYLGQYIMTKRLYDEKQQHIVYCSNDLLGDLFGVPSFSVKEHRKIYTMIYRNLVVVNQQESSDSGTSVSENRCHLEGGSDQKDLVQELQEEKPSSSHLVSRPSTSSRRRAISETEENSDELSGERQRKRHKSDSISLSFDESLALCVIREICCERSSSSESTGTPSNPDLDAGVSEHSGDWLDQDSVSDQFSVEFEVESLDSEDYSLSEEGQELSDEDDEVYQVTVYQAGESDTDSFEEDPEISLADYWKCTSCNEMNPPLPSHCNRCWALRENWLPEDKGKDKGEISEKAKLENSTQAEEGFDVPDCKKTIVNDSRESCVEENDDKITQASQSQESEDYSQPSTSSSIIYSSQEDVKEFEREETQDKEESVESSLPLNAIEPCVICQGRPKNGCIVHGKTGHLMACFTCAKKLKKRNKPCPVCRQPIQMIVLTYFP

Cc1ccc(NC(=O)NCC2CC2(Cl)Cl)cc1 (configuration not stated)
EC50 [1]: 2170 nM (active)
EC50 [2]: 226 nM (active)
EC50 (H4): 8760 nM (active)
EC50 [3]: 1720 nM (active)
EC50 [4]: > 12000 nM (not active)
EC50 [5]: 399 nM (active)

Cn1cc(-c2ccc(CN3C(=O)C(=O)c4cccc(F)c43)c(F)c2)cn1
EC50 [6]: 2320 nM (active)

O=c1c(C(c2ccccn2)c2c(O)oc3ccccc3c2=O)c(O)oc2ccccc12
IC50 [7]: 152000 nM (active)

O=C(CSc1nnc(-c2cccnc2)n1C1CCCCC1)NC1CCCCC1
EC50 [8]: 40 nM (not active)

Cc1[nH]c2c(Cl)cccc2c1CCN
EC50 [9]: > 50000 nM (not active)

Cc1ccc2nc(O)c(CN(CCCN(C)C)C(=O)Nc3ccc(Cl)cc3)cc2c1
IC50 (Vero): 17800 nM (active)

COc1ccc(-c2ccccc2[C@@H]2[C@H](C#N)N(C(=O)C3CCCC3)[C@H]2CO)cc1
AC50 [10]: 19100 nM (active)

O=C1c2c(O)ccc(O)c2C(=O)c2c(NCCNCCO)ccc(NCCNCCO)c21 [MITOXANTRONE HYDROCHLORIDE]
AC50 (Paired box protein Pax-8): 690 nM (active)
GI50 (P388/ADR): 22.2 nM (active)
IC50 [11]: 37900 nM (inactive)
IC50 [12]: > 10000 nM (inactive)
AC50 [13]: 9510 nM (active)
IC50 [14]: 1600 nM (active)
IC50 [15]: 1830 nM (active)
CC50 [16]: < 80 nM (active)
IC50 [17]: 1 nM (active)
AC50 [18]: < 150 nM (active)
IC50 [19]: > 10000 nM (inactive)
AC50 [20]: 535 nM (active)
AC50 [21]: 33600 nM (active)
IC50 [22]: > 122000 nM (inactive)
GI50 (P388): 3.55 nM (active)
AC50 [23]: 658 nM (active)
IC50 [24]: 1030 nM (active)
IC50 (Nonstructural protein 1): 1100 nM (active)
IC50 [25]: 14800 nM (active)
IC50 [26]: 1720 nM (active)
GI50 (SN12K1): 5.3 nM (active)
IC50 [27]: 1230 nM (active)
IC50 [28]: 3850 nM (active)

O=C(Nc1ccc(S(=O)(=O)NCc2ccccc2)cc1)c1ccccc1[N+](=O)[O-]
IC50 [29]: 5100 nM (active)

Cc1ccc(S(=O)(=O)NC(=O)NN2CC3CCCC3C2)cc1 (configuration not stated) [GLICLAZIDE]
IC50 [12]: > 10000 nM (inactive)
IC50 [30]: 1830 nM (active)
IC50 (cells): > 33300 nM (inactive)
IC50 [19]: > 10000 nM (inactive)

CCCOc1[nH]cnc2c3ccccc3nc1-2
IC50 (Galanin receptor type 2): > 42000 nM (not active)
IC50 [31]: 19600 nM (not active)

CCN(CC)S(=O)(=O)c1cccc(N2C(=O)/C(=C\Nc3ccccc3C(=O)O)c3ccccc3C2=O)c1
EC50 [32]: > 60000 nM (not active)
IC50 [33]: > 40000 nM (not active)
AC50 (HEK293): 167 nM (active)
EC50 [34]: 210 nM (active)
EC50 [35]: 13700 nM (active)
